Columns and labels:
PAF-induced hypotension = PAF-induced hypotension (Test D); type: in vivo, Wistar rats
Experimental: Male Wistar rats, weighing approximately 300 gm, are anesthetized and their carotid arteries cannulated to enable their diastolic and systolic arterial blood pressure measurements to be recorded. PAF is then administered intravenously at either 100 or 500 ng/kg, and the blood pressure drop (within 10 sec.) and recovery time required to reach the pre-injection blood pressure level are measured.

[1] = tested on: PAF-mediated extravasation; assay: PAF-induced Extravasation test (Test C), hemoconcentration; type: in vivo, guinea pigs; settings: Cavia porcellus, PAF 100 ng/kg i.v., hematocrit increase
[2] = tested on: PAF-mediated broncho-constriction (PAF-induced Pulmonary Inflation Pressure increase); assay: PAF-induced Pulmonary Inflation Pressure (PIP) Increase test (Test B); type: in vivo, guinea pigs; settings: Cavia porcellus, PAF 100 ng/kg i.v., maximal PIP
Experimental: Male guinea pigs, weighing between 300 and 400 gm, are anesthetized, after which time trachea tube, carotid and jugular catheters are inserted. The test animal is then force ventilated employing a small animal Harvard respirator and the resistance to lung inflation (PIP) is measured utilizing a pressure transducer and recorder. The test compound is administered orally at 30 minutes prior to, intravenously (jugular) at 5 minutes prior to, or intraarterially at 1 to 5 minutes prior to the introduction of PAF. The PAF (C18 -Sandoz, Hanover) is dissolved in Tris-Tyrode's bovine serum albumin buffer and administered intravenously (jugular) at 100 ng/kg. Any blood pressure measurements taken are recorded from a transducer attached to the carotid catheter.

[3] = molecular target: T1, Human Platelet PAF Receptor (Homo sapiens, UniProt P25105); assay: Human Platelet PAF Receptor Assay test (Test A): inhibition of specific binding of [3H]-PAF to platelets; settings: inhibition of [3H]-PAF specific binding
T1 construct: endogenous in cells; host or cells: washed intact platelets from blood of healthy human donors
Experimental: Human blood is obtained by venipuncture of healthy, human donors into an anti-coagulant mixture containing 3.15% of trisodium citrate and 20 μg/ml of Prostaglandin I2 (PGI2) in a ratio of blood to anti-coagulant of 9:1. Platelet rich plasma (PRP) is prepared by centrifugation (250×g) of the blood for 20 minutes at room temperature. The PRP is then centrifuged […] for 10 minutes at room temperature and the platelet pellet is washed two times with Tris-Tyrode's (TT) solution having a pH of 7.4 and containing 0.25% bovine serum albumin (BSA), and to which has been added PGI2 at a final concentration of […]. The platelets are resuspended at […] in TT/BSA containing 1.4 mM CaCl2.2H2 O and 0.7 mM MgCl2.6H2 O. All of the tests are conducted in duplicate and each of the test compounds is evaluated at concentrations of 100, 500, 1 and 0.1 μM. For each determination, the following solutions are mixed:
500 μl of the above-described platelets;
10 μl of [^3 H]-PAF (40,000 counts per minute (cpm) to a final concentration of […]); and either
10 μl of the test compound at 50× the desired final concentration,
10 μl of vehicle (total bound), or
10 μl of 1.85×10^-5 M cold PAF (non-specifically bound).
Each mixture is allowed to incubate at room temperature for one hour, after which time the reaction is terminated by the addition of 500 μl of ice cold TT/BSA and centrifugation (900×g) at 4° C. for 10 minutes. The resultant supernatant is aspirated into scintillation vials and the pellet is washed with […]. of ice cold TT/BSA and centrifuged (900×g) at 4° C. for 10 minutes. The supernatants are then aspirated into the same scintillation vials as before and 10 ml. of Scintiverse II (a liquid scintillation cocktail) is added to and mixed therewith. The pellets are resuspended in 500 μl of Scintiverse II and mixed well. An additional 2 ml. of Scintiverse II is then added to the vials and, after mixing, the vials are counted for 1 minute in a liquid scintillation spectrometer. The amount of specific binding is calculated as the difference in cpm between the total bound [^3 H]-PAF and non-specifically bound [^3 H]-PAF. The percent inhibition of specific binding is determined by dividing the cpm specifically bound in the presence of the test compound by the cpm specifically bound in total, multiplying by 100 and then subtracting from 100. An IC50 (50% inhibitory concentration) value is generated by evaluating the test compound over the full concentration range.

[4] = tested on: PAF-induced human platelet aggregation; assay: Platelet Aggregation Inhibition Assay test (PAIA test): inhibition of PAF-induced human platelet aggregation in vitro; type: cell-based; settings: 0.1 h, platelet rich plasma, AUC over 6 min
Experimental: All of the compounds of formula I are useful as platelet activating factor inhibitors as indicated by their ability to inhibit platelet activating factor (PAF)-induced human platelet aggregation in vitro according to the Platelet Aggregation Inhibition Assay test (PAIA test) as follows:
Human subjects are kept aspirin free for one week and fasted overnight. Platelet rich plasma (PRP) is prepared by centrifugation (200×g.) of freshly drawn blood, anti-coagulated with 0.38% sodium citrate (final concentration). Platelet count is adjusted to 250,000 per μl using platelet poor plasma (PPP) obtained by a second centrifugation (700×g.) of the blood sample. An aliquot (0.38 ml) of the PRP is dispensed into cuvettes and maintained at room temperature (22° C.) until used (but for not more than two hours). The PRP-containing cuvettes are incubated at 37° C. and stirred at 900 rpm within a Payton Aggregometer which is activated to follow the light deflection pattern prior to the addition of the test compound. […] The aggregation response is quantitated by determining the area under the curve (AUC). The AUC calculated for the inducing agent alone is considered to be one hundred percent. […]

T1 sequence (P25105 whole entry): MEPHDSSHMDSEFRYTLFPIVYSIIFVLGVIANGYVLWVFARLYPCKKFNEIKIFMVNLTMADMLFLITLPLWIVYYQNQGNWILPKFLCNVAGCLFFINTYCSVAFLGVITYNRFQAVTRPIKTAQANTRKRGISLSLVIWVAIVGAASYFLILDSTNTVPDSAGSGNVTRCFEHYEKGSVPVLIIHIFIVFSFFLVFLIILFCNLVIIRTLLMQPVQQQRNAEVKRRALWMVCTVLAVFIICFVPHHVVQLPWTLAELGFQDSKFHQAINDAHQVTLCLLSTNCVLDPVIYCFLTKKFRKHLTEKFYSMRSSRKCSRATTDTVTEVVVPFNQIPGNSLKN

Row | Compound | ED50 ([1]; po) [mg/kg] | ED50 ([2]; po) [mg/kg] | IC50 [3] [nM] | other results
1 | 1-0-alkyl-2-acetyl-sn-glyceryl-3-phosphoryl-choline [PAF] | – | – | – | decrease in blood pressure (PAF-induced hypotension; PAF 100 ng/kg i.v.): 30%; decrease in blood pressure (PAF-induced hypotension; PAF 500 ng/kg i.v.): 52%
2 | COc1cc([C@H]2CC[C@H](c3cc(OC)c(OC)c(OC)c3)C2O)cc(OC)c1OC (relative stereo) [Example 3, 1α, 2α, 5β isomer, 2,5-bis(3,4,5-Trimethoxyphenyl)cyclopentanol] | > 20 | > 20 | 4700 | –
3 | COc1cc([C@H]2CC[C@H](c3cc(OC)c(OC)c(OC)c3)C2OC)cc(OC)c1OC (relative stereo) [Example 4, (1α,2α,5β)-2,5-bis(Trimethoxyphenyl)-1-methoxy cyclopentane] | – | – | – | ED50 ([1]; i.a.): 0.4 mg/kg; ED50 (PAF-induced hypotension; Rattus norvegicus, iv, PAF-induced blood pressure decrease): 0.12 mg/kg; IC50 [4]: 880 nM; ED50 ([2]; iv, i.a.): 0.5 mg/kg; IC50 ([3]; unit printed um): 100 nM
4 | COc1cc([C@H]2CC[C@H](c3cc(OC)c(OC)c(OC)c3)C2N)cc(OC)c1OC (relative stereo) [Example 10, 1α, 2α, 5β isomer, 1-Amino-2,5-bis(3,4,5-trimethoxyphenyl)cyclopentane] | – | – | 2700 | –
5 | COc1cc(C2=CCC(c3cc(OC)c(OC)c(OC)c3)C2=O)cc(OC)c1OC (stereo not shown) [Example 1, 2,5-bis(3,4,5-Trimethoxyphenyl)cyclopent-2-enone] | – | – | 6000 | ED50 ([1]; i.a.): 1 mg/kg; ED50 ([2]; iv, i.a.): 1 mg/kg
6 | COc1cc(C2CCC(c3cc(OC)c(OC)c(OC)c3)C2=O)cc(OC)c1OC (stereo not shown) [Example 2, 2,5-bis(3,4,5-Trimethoxyphenyl)cyclopentanone] | > 20 | > 20 | 900 | –
7 | COc1cc([C@H]2CC[C@@H](c3cc(OC)c(OC)c(OC)c3)[C@H]2O)cc(OC)c1OC [Example 3, 1α, 2α, 5α isomer, 2,5-bis(3,4,5-Trimethoxyphenyl)cyclopentanol] | > 20 | ~20 | 2800 | –
8 | COc1cc([C@H]2CC[C@@H](c3cc(OC)c(OC)c(OC)c3)[C@H]2OC)cc(OC)c1OC [Example 5, (1α,2α,5α)-2,5-bis(Trimethoxyphenyl)-1-methoxy cyclopentane] | – | – | – | IC50 [4]: 22000 nM
9 | COc1cc(C2CCC(c3cc(OC)c(OC)c(OC)c3)C2=NO)cc(OC)c1OC (stereo not shown) [Example 9, 2,5-bis(3,4,5-Trimethoxyphenyl)cyclopentanone, oxime] | 0.75 | 0.87 | 450 | –
10 | COc1cc([C@H]2CC[C@@H](c3cc(OC)c(OC)c(OC)c3)[C@H]2N)cc(OC)c1OC [Example 10, 1α, 2α, 5α isomer, 1-Amino-2,5-bis(3,4,5-trimethoxyphenyl)cyclopentane] | – | – | 22000 | –

— US4845129A, “Diaryl substituted cyclopentane and cyclopentene derivatives” (Sandoz Pharm. Corp., priority 1988, dated 1989)
